Measurements: ChEMBL document CHEMBL3272053, “(exo, exo)-2-Aryltropane-3-carboxylic esters, hypoglycemic agents with accompanying analgesic activity” (J Med Chem, 1978)
Calls of active or inactive are those of the source. The rule behind the calls is not given here.

Columns and labels:
[1] = test system: Rattus norvegicus; test: Hypoglycemic activity in glucose loaded Sprague-Dawley rat assessed as reduction of blood glucose level at 100 mg/kg, po measured at 1 hr relative to control; format: functional; parameters: scale not given: the % may be the effect or the level left
[2] = test system: Rattus norvegicus; test: Hypoglycemic activity in glucose/glycogen loaded Sprague-Dawley rat assessed as reduction of blood glucose level at 100 mg/kg, po measured at 1 hr relative to control; format: functional; parameters: scale not given: the % may be the effect or the level left
[3] = test system: Rattus norvegicus; test: Narcotic analgesic activity in fasted Sprague-Dawley rat at 240 mg/kg, po measured within 15 mins in presence of (exo,endo)-methyl 8-methyl-2-phenyl-8-azabicyclo[3.2.1]octane-3-carboxylate; format: functional, organism-based; parameters: dose 240 mg/kg
[4] = test system: Rattus norvegicus; test: Hypoglycemic activity in glucose loaded Sprague-Dawley rat assessed as reduction of glucose level per 100 mL of blood at 100 mg/kg, po measured at 2 hrs (reference value: 104 +/- 4 mg/100 mL); format: functional
[5] = test system: Rattus norvegicus; test: Analgesic activity in po dosed rat assessed as reduction of intraarterial bradykinin-induced pain response; format: functional
[6] = test system: Rattus norvegicus; test: Hypoglycemic activity in fasted Sprague-Dawley rat assessed as reduction of blood glucose level at 100 mg/kg, po measured at 0.5 hrs relative to control; format: functional; parameters: scale not given: the % may be the effect or the level left
[7] = test system: Mus musculus; test: Analgesic activity in po dosed Swiss-Webster mouse assessed as reduction of acetylcholine-induced writhing; format: functional
[8] = test system: Rattus norvegicus; test: Toxicity in Sprague-Dawley rat at 240 mg/kg, po; format: organism-based; parameters: dose 240 mg/kg, route oral; settings: in vivo
[9] = test system: Rattus norvegicus; test: Hypoglycemic activity in Sprague-Dawley rat assessed as reduction of blood glucose level at 100 mg/kg, po by glucagon-impaired glucose disposal test relative to control; format: functional; parameters: scale not given: the % may be the effect or the level left
[10] = test system: Rattus norvegicus; test: Hypoglycemic activity in fasted Sprague-Dawley rat assessed as reduction of blood glucose level at 100 mg/kg, po measured at 1 hr relative to control; format: functional; parameters: scale not given: the % may be the effect or the level left
[11] = Drug metabolism in glucose loaded Sprague-Dawley rat urine assessed as formation of (7)- (exo,exo)-methyl 2-(thiophen-2-yl)-8-azabicyclo[3.2.1]octane-3-carboxylate hydrochloride at 20 mg, po administered 3 to 6 hrs measured for 24 hrs by TLC/mass spectrographic analysis; format: ADME, organism-based; settings: in vivo
[12] = test system: Rattus norvegicus; test: Narcotic analgesic activity in fasted Sprague-Dawley rat at 240 mg/kg, po measured at 15 mins by D'Amour-Smith tail-flick test relative to control; format: functional
[13] = test system: Rattus norvegicus; test: Hypoglycemic activity in glucose loaded Sprague-Dawley rat assessed as reduction of blood glucose level at 100 mg/kg, po measured at 0.5 hrs relative to control; format: functional; parameters: scale not given: the % may be the effect or the level left
[14] = test system: Rattus norvegicus; test: Hypoglycemic activity in glucose loaded Sprague-Dawley rat assessed as reduction of blood glucose level at 100 mg/kg, po measured at 1.5 hrs relative to control; format: functional; parameters: scale not given: the % may be the effect or the level left
[15] = test system: Rattus norvegicus; test: Hypoglycemic activity in fasted Sprague-Dawley rat assessed as reduction of blood glucose level at 100 mg/kg, po measured at 1.5 hrs relative to control; format: functional; parameters: scale not given: the % may be the effect or the level left
[16] = test system: Rattus norvegicus; test: Hypoglycemic activity in glucose/glycogen loaded Sprague-Dawley rat assessed as reduction of blood glucose level at 100 mg/kg, po measured at 0.5 hrs relative to control; format: functional; parameters: scale not given: the % may be the effect or the level left
[17] = test system: Rattus norvegicus; test: Hypoglycemic activity in fasted Sprague-Dawley rat assessed as reduction of blood glucose level at 100 mg/kg, po measured at 2 hrs relative to control; format: functional; parameters: scale not given: the % may be the effect or the level left
[18] = test system: Rattus norvegicus; test: Hypoglycemic activity in glucose/glycogen loaded Sprague-Dawley rat assessed as reduction of blood glucose level at 100 mg/kg, po measured at 1.5 hrs relative to control; format: functional; parameters: scale not given: the % may be the effect or the level left
[19] = test system: Rattus norvegicus; test: Hypoglycemic activity in Sprague-Dawley rat assessed as reduction of blood glucose level at 100 mg/kg, po by glucagon-impaired glucose disposal test in presence of opioid antagonist nalorphine; format: functional, organism-based; parameters: dose 100 mg/kg
[20] = test system: Rattus norvegicus; test: Hypoglycemic activity in glucose/glycogen loaded Sprague-Dawley rat assessed as reduction of glucose level per 100 mL of blood at 100 mg/kg, po measured at 2 hrs (reference value: 110 +/- 10 mg/100 mL); format: functional
[21] = test system: Rattus norvegicus; test: Hypoglycemic activity in Sprague-Dawley rat assessed as reduction of blood glucose level at 100 mg/kg, po by glucagon-impaired glucose disposal test in presence of (exo,endo)-methyl 8-methyl-2-phenyl-8-azabicyclo[3.2.1]octane-3-carboxylate; format: functional, organism-based; parameters: dose 100 mg/kg
[22] = test system: Rattus norvegicus; test: Hypoglycemic activity in Sprague-Dawley rat assessed as reduction of blood glucose level at 100 mg/kg, po by glucagon-impaired glucose disposal test in presence of microsomal enzyme inhibitor SKF 525-A; format: functional, organism-based; parameters: dose 100 mg/kg
[23] = test system: Mus musculus; test: Analgesic activity in sc dosed Swiss-Webster mouse assessed as reduction of acetylcholine-induced writhing; format: functional; settings: Mus musculus, Swiss-Webster, sc; read-out: ED50
[24] = test system: Rattus norvegicus; test: Hypoglycemic activity in glucose/glycogen loaded Sprague-Dawley rat assessed as reduction of blood glucose level at 87 mg/kg, po; format: functional, organism-based; parameters: dose 87 mg/kg
[25] = test system: Rattus norvegicus; test: Analgesic activity in po dosed rat assessed as reduction of intraarterial bradykinin-induced pain response measured up to 120 mins; format: functional; settings: 2 h
[26] = test system: Rattus norvegicus; test: Narcotic analgesic activity in po dosed fasted Sprague-Dawley rat measured at 60 mins by D'Amour-Smith tail-flick test; format: functional; settings: Rattus norvegicus, Sprague-Dawley, Tail, po, 1 h; read-out: ED50
[27] = test system: Rattus norvegicus; test: Toxicity in Sprague-Dawley rat assessed as convulsion at 35 mg/kg, po; format: organism-based; parameters: dose 35 mg/kg, route oral; settings: in vivo
[28] = test system: Mus musculus; test: Toxicity in Swiss-Webster mouse assessed as mortality at 75 mg/kg, sc; format: organism-based; parameters: dose 75 mg/kg, route subcutaneous; settings: in vivo
[29] = test system: Rattus norvegicus; test: Hypoglycemic activity in Sprague-Dawley rat assessed as reduction of blood glucose level at 9 mg/kg, po measured within 15 mins by glucagon-impaired glucose disposal test relative to control; format: functional; parameters: scale not given: the % may be the effect or the level left
[30] = test system: Rattus norvegicus; test: Narcotic analgesic activity in fasted Sprague-Dawley rat at 35 mg/kg, po measured at 15 mins by D'Amour-Smith tail-flick test relative to control; format: functional
[31] = test system: Rattus norvegicus; test: Narcotic analgesic activity in fasted Sprague-Dawley rat at 35 mg/kg, po measured at 30 mins by D'Amour-Smith tail-flick test relative to control; format: functional
[32] = test system: Rattus norvegicus; test: Hypoglycemic activity in Sprague-Dawley rat assessed as reduction of blood glucose level at 9 mg/kg, po by glucagon-impaired glucose disposal test in presence of microsomal enzyme inhibitor SKF 525-A; format: functional, organism-based; parameters: dose 9 mg/kg
[33] = test system: Rattus norvegicus; test: Narcotic analgesic activity in fasted Sprague-Dawley rat at 35 mg/kg, po measured at 60 mins by D'Amour-Smith tail-flick test relative to control; format: functional
[34] = test system: Rattus norvegicus; test: Hypoglycemic activity in Sprague-Dawley rat assessed as reduction of blood glucose level at 9 mg/kg, po measured < 90 mins by glucagon-impaired glucose disposal test; format: functional, organism-based; parameters: dose 9 mg/kg
[35] = test system: Rattus norvegicus; test: Narcotic analgesic activity in fed Sprague-Dawley rat at 120 mg/kg, sc measured at 30 mins by D'Amour-Smith tail-flick test; format: functional; settings: route subcutaneous
[36] = test system: Rattus norvegicus; test: Hypoglycemic activity in Sprague-Dawley rat assessed as reduction of blood glucose level at 87 mg/kg, po by glucagon-impaired glucose disposal test relative to control; format: functional; parameters: scale not given: the % may be the effect or the level left
[37] = test system: Rattus norvegicus; test: Narcotic antagonist activity in fed Sprague-Dawley rat assessed as decrease in phenazocine-induced analgesic activity at 80 mg/kg, sc; format: functional
[38] = test system: Rattus norvegicus; test: Toxicity in Sprague-Dawley rat assessed as tremor at 30 mg/kg, sc; format: organism-based; parameters: dose 30 mg/kg, route subcutaneous; settings: in vivo
[39] = test system: Rattus norvegicus; test: Toxicity in Sprague-Dawley rat assessed as convulsion at 120 mg/kg, sc; format: organism-based; parameters: dose 120 mg/kg, route subcutaneous; settings: in vivo
[40] = test system: Rattus norvegicus; test: Narcotic antagonist activity in fed Sprague-Dawley rat assessed as decrease in phenazocine-induced analgesic activity at 1 mg/kg, sc; format: functional, organism-based; parameters: dose 1 mg/kg

## CCCCCN1[C@@H]2CC[C@@H]1[C@@H](c1cccs1)[C@@H](C(=O)OC)C2.CS(=O)(=O)O
[1]
  Activity: 61%
[2]
  Activity: 60%
[3]
  Activity: inactive
[4]
  Activity: 76 mg/kg
[5]
  ED50: 17 mg/kg
[6]
  Activity: 42%
[7]
  ED50: 57 mg/kg
[8]
  Activity: Non-toxic
[9]
  Activity: 60%
[10]
  Activity: 41%
[11]
  Drug metabolism: metabolite_detected
[12]
  Activity: 71%
[13]
  Activity: 67%
[14]
  Activity: 33%
[15]
  Activity: 39%
[16]
  Activity: 60%
[17]
  Activity: 33%
[18]
  Activity: 52%
[19]
  Activity: Active
[20]
  Activity: 77 mg/kg
[21]
  Activity: Active
[22]
  Activity: inactive

## COC(=O)[C@H]1CCCN(C)[C@H]1c1cccs1 (relative stereo)
[23]
  ED50: 3.8 mg/kg
[24]
  Activity: inactive
[7]
  ED50: 11 mg/kg
[25]
  ED50: 111 mg/kg
[26]
  ED50: 112 mg/kg

## COC(=O)[C@H]1C[C@H]2CC[C@@H]3[C@H]1c1sccc1CN23.Cl
[27]
  Activity: Toxic
[28]
  Activity: Toxic
[23]
  ED50: 1.5 mg/kg
[29]
  Activity: 43%
[30]
  Activity: 74%
[31]
  Activity: 14%
[32]
  Activity: Active
[33]
  Activity: 12%
[34]
  Activity: inactive

## CC(=O)[C@H]1C[C@H]2CC[C@H]([C@H]1c1ccccc1)N2C.Cl
[23]
  ED50: 7 mg/kg
[35]
  Activity: <20%
[36]
  Activity: 32%
[37]
  Activity: Active
[38]
  Activity: Toxic
[39]
  Activity: Toxic
[40]
  Activity: Active
